The kinase profiling compilation of Christmann-Franck et al. (2016)

Legend:
Test in all cases: radiometric filter-binding kinase assay, Kinase HotSpot
Conditions in all cases: compound 0.5 µM; ATP 10 µM
AKT3 (human) = AKT3 (human) (UniProt Q9Y243)
CAMK1G (human) = CAMK1G (human) (UniProt Q96NX5)
CAMK2A (human) = CAMK2A (human) (UniProt Q9UQM7)
CAMK2B (human) = CAMK2B (human) (UniProt Q13554)
CAMK2D (human) = CAMK2D (human) (UniProt Q13557)
CDK2 CCNA2 (human) = CDK2 CCNA2 (human) (UniProt P24941+P20248)
CDK3 CCNE1 (human) = CDK3 CCNE1 (human) (UniProt Q00526+P24864)
CDK4 CCND1 (human) = CDK4 CCND1 (human) (UniProt P24385+P11802)
CDK6 CCND3 (human) = CDK6 CCND3 (human) (UniProt P30281+Q00534)
CHEK1 (human) = CHEK1 (human) (UniProt O14757)
Sequence of CHEK1 (human) (O14757 whole entry, looked up): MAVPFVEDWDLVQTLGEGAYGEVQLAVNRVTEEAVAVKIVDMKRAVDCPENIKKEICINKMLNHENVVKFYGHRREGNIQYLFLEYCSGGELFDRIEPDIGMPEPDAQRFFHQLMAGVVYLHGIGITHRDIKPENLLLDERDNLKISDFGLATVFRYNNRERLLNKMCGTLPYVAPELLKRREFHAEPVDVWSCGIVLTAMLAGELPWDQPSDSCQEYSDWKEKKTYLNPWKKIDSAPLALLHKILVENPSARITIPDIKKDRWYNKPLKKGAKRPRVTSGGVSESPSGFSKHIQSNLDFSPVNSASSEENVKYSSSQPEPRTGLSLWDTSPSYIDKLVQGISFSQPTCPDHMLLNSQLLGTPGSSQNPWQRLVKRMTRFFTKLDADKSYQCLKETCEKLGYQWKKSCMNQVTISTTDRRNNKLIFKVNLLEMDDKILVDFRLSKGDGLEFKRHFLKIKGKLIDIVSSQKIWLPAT

CLK1 (human) = CLK1 (human) (UniProt P49759)
DAPK2 (human) = DAPK2 (human) (UniProt Q9UIK4)
DAPK3 (human) = DAPK3 (human) (UniProt O43293)
EPHB4 (human) = EPHB4 (human) (UniProt P54760)
Sequence of EPHB4 (human) (P54760 whole entry, looked up): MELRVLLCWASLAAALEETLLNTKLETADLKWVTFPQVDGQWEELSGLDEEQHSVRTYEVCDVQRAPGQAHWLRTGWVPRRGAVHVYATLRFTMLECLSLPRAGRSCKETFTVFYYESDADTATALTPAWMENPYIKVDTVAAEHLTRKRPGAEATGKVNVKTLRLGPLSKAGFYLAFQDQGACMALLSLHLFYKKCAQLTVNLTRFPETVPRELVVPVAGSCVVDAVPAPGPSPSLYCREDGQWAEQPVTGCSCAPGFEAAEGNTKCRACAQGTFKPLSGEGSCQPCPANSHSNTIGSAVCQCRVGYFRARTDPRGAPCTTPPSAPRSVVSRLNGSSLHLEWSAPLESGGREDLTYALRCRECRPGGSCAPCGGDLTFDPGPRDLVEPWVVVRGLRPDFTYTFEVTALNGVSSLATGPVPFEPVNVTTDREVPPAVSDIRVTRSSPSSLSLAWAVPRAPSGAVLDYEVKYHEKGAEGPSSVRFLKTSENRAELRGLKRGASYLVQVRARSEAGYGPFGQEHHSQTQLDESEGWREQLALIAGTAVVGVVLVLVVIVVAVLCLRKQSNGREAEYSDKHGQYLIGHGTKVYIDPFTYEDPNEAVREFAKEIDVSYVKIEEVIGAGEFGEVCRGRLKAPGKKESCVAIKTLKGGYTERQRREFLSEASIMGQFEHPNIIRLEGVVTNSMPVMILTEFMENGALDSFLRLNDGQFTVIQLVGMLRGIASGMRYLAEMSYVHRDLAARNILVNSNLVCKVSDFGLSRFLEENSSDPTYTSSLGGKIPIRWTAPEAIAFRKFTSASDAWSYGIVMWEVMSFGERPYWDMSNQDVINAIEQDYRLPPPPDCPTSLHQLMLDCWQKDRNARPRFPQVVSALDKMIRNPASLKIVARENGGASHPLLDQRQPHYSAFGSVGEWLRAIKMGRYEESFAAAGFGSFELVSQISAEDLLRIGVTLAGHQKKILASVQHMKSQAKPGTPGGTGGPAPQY

GRK4 (human) = GRK4 (human) (UniProt P32298)
GRK7 (human) = GRK7 (human) (UniProt Q8WTQ7)
HIPK4 (human) = HIPK4 (human) (UniProt Q8NE63)
IRAK1 (human) = IRAK1 (human) (UniProt P51617)
[1] = target: JAK1 JH1 catalytic (human) (UniProt P23458)
JAK3 JH1 JH2 (human) = JAK3 JH1 JH2 (human) (UniProt P52333)
MAPK1 (human) = MAPK1 (human) (UniProt P28482)
MYLK2 (human) = MYLK2 (human) (UniProt Q9H1R3)
PBK (human) = PBK (human) (UniProt Q96KB5)
PIM2 (human) = PIM2 (human) (UniProt Q9P1W9)
PRKCH (human) = PRKCH (human) (UniProt P24723)
PRKCI (human) = PRKCI (human) (UniProt P41743)
PRKD1 (human) = PRKD1 (human) (UniProt Q15139)
RIPK2 (human) = RIPK2 (human) (UniProt O43353)
ROCK1 (human) = ROCK1 (human) (UniProt Q13464)
Sequence of ROCK1 (human) (Q13464 whole entry, looked up): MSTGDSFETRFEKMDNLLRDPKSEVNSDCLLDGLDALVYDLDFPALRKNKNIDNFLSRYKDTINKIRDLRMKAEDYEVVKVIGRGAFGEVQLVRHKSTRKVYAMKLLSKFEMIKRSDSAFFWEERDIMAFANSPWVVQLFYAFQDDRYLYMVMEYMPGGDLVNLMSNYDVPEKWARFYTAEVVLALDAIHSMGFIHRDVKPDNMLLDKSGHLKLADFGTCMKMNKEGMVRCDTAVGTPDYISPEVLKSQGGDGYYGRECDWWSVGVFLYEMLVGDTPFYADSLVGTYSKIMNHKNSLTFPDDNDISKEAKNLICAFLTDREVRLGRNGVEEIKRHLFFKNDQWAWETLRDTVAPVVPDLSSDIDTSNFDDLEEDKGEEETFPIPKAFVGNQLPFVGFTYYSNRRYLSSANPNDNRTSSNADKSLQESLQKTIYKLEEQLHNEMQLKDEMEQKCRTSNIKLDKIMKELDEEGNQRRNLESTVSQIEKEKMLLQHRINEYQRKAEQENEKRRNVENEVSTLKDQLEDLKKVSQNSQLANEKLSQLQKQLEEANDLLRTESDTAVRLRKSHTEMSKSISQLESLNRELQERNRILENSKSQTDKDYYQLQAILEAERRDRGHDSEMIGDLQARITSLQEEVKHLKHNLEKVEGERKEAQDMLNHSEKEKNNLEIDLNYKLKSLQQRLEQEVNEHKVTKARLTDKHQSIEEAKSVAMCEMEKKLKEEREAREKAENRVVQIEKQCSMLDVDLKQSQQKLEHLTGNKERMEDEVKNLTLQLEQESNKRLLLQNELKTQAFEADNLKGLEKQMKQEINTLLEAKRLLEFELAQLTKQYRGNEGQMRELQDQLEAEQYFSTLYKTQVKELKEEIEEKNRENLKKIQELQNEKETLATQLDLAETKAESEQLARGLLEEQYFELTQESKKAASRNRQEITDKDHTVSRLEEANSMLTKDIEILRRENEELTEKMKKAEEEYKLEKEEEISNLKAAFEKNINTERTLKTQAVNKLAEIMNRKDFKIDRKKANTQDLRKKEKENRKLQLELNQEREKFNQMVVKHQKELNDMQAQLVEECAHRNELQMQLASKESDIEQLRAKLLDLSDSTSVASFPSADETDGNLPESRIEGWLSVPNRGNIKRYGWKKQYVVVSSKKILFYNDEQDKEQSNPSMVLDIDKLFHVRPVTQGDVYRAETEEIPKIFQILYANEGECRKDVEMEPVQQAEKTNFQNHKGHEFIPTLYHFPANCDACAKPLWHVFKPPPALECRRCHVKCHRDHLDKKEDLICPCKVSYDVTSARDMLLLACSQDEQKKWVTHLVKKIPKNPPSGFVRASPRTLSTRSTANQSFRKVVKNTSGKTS

RPS6KA5 KD2 (human) = RPS6KA5 KD2 (human) (UniProt O75582)
STK11 (human) = STK11 (human) (UniProt Q15831)
STK33 (human) = STK33 (human) (UniProt Q9BYT3)
Sequence of STK33 (human) (Q9BYT3 whole entry, looked up): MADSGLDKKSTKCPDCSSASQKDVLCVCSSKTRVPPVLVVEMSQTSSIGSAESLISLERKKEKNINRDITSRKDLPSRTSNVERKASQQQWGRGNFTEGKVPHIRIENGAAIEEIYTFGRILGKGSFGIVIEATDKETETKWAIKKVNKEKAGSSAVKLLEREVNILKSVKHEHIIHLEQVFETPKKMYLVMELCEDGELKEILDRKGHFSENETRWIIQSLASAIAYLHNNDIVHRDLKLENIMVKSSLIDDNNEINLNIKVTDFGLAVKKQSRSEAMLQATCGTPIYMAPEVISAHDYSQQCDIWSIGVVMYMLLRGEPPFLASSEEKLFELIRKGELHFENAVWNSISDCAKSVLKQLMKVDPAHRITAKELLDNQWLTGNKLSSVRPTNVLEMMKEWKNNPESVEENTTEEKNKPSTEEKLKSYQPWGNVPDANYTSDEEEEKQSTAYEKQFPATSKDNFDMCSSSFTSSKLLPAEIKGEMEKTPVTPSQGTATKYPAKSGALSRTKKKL

STK39 (human) = STK39 (human) (UniProt Q9UEW8)
TAOK3 (human) = TAOK3 (human) (UniProt Q9H2K8)
TGFBR1 (human) = TGFBR1 (human) (UniProt P36897)
TSSK1B (human) = TSSK1B (human) (UniProt Q9BXA7)
TSSK2 (human) = TSSK2 (human) (UniProt Q96PF2)
[2] = target: TYK2 JH1 catalytic (human) (UniProt P29597)
Sequence of TYK2 JH1 catalytic (human) (P29597 whole entry, looked up): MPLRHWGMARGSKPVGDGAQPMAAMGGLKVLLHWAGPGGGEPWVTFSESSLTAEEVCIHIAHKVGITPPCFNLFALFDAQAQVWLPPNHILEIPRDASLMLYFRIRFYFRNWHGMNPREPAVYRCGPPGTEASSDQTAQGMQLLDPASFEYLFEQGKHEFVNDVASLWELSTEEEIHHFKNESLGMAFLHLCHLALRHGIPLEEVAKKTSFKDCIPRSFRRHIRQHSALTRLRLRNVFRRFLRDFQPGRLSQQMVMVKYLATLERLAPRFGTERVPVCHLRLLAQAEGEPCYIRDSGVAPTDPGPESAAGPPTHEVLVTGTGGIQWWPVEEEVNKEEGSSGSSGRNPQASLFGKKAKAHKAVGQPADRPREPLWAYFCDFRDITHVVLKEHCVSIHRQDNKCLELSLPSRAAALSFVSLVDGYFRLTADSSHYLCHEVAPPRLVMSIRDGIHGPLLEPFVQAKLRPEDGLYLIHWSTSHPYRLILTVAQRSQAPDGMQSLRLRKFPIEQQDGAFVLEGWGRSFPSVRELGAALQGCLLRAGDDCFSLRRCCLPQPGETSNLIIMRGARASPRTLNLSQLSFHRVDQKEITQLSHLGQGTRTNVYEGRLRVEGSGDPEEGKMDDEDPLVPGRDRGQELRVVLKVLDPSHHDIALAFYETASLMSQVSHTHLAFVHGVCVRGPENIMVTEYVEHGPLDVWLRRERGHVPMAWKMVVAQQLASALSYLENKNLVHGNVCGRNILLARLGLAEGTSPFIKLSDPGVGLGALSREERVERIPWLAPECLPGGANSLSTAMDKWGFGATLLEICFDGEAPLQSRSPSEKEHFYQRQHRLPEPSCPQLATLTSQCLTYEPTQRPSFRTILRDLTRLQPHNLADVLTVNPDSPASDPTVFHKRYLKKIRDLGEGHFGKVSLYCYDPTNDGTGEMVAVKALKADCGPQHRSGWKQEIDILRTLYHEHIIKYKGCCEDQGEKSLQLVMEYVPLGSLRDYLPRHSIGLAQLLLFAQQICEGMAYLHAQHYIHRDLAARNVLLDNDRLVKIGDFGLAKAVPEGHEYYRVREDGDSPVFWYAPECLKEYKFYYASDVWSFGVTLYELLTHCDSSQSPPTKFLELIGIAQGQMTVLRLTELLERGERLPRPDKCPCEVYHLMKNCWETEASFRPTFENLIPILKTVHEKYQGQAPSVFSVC

TYRO3 (human) = TYRO3 (human) (UniProt Q06418)
VRK1 (human) = VRK1 (human) (UniProt Q99986)
YES1 (human) = YES1 (human) (UniProt P07947)

Sequence of CAMK2D (human) (Q13557 whole entry, looked up): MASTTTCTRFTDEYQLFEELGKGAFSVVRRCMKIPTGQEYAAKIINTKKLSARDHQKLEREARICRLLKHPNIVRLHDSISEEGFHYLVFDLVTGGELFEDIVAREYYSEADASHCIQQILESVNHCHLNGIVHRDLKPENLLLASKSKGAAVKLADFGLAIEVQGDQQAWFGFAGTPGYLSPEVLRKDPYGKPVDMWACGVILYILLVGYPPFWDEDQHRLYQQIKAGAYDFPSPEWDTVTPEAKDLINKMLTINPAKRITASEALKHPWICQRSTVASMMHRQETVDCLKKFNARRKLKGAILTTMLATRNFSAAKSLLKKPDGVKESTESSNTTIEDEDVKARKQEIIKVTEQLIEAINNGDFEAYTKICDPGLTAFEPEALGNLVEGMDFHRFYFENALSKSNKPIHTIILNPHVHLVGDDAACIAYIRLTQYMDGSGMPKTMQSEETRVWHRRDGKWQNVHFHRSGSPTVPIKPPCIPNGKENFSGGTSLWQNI

CCc1nc(-c2ccc(OC)cc2)[nH]c1-c1ccncc1
residual activity (AKT3 (human)): 101% | residual activity (CAMK1G (human)): 98% | residual activity (CAMK2A (human)): 105% | residual activity (CAMK2B (human)): 97.1% | residual activity (CAMK2D (human)): 96.4% | residual activity (CDK2 CCNA2 (human)): 99.5% | residual activity (CDK3 CCNE1 (human)): 97.9% | residual activity (CDK4 CCND1 (human)): 107% | residual activity (CDK6 CCND3 (human)): 101% | residual activity (CHEK1 (human)): 98.6% | residual activity (CLK1 (human)): 105% | residual activity (DAPK2 (human)): 104% | residual activity (DAPK3 (human)): 95.8% | residual activity (EPHB4 (human)): 90.3% | residual activity (GRK4 (human)): 99.3% | residual activity (GRK7 (human)): 101% | residual activity (HIPK4 (human)): 90% | residual activity (IRAK1 (human)): 128% | residual activity [1]: 110% | residual activity (JAK3 JH1 JH2 (human)): 96.1% | residual activity (MAPK1 (human)): 97.2% | residual activity (MYLK2 (human)): 101% | residual activity (PBK (human)): 104% | residual activity (PIM2 (human)): 105% | residual activity (PRKCH (human)): 93% | residual activity (PRKCI (human)): 101% | residual activity (PRKD1 (human)): 100% | residual activity (RIPK2 (human)): 95% | residual activity (ROCK1 (human)): 105% | residual activity (RPS6KA5 KD2 (human)): 107% | residual activity (STK11 (human)): 89.5% | residual activity (STK33 (human)): 101% | residual activity (STK39 (human)): 94.2% | residual activity (TAOK3 (human)): 107% | residual activity (TGFBR1 (human)): 98.2% | residual activity (TSSK1B (human)): 106% | residual activity (TSSK2 (human)): 98.7% | residual activity [2]: 106% | residual activity (TYRO3 (human)): 97.9% | residual activity (VRK1 (human)): 104% | residual activity (YES1 (human)): 95.1%

FC(F)(F)c1ccc(/C=C/c2nc(COc3ccc(CCCCn4ccnn4)cc3)co2)cc1
residual activity (AKT3 (human)): 96.3% | residual activity (CAMK1G (human)): 95% | residual activity (CAMK2A (human)): 101% | residual activity (CAMK2B (human)): 99.3% | residual activity (CAMK2D (human)): 109% | residual activity (CDK2 CCNA2 (human)): 87.9% | residual activity (CDK3 CCNE1 (human)): 91% | residual activity (CDK4 CCND1 (human)): 96.8% | residual activity (CDK6 CCND3 (human)): 90% | residual activity (CHEK1 (human)): 108% | residual activity (CLK1 (human)): 101% | residual activity (DAPK2 (human)): 107% | residual activity (DAPK3 (human)): 105% | residual activity (EPHB4 (human)): 92.2% | residual activity (GRK4 (human)): 102% | residual activity (GRK7 (human)): 97.8% | residual activity (HIPK4 (human)): 105% | residual activity (IRAK1 (human)): 99.5% | residual activity [1]: 103% | residual activity (JAK3 JH1 JH2 (human)): 93% | residual activity (MAPK1 (human)): 88.6% | residual activity (MYLK2 (human)): 101% | residual activity (PBK (human)): 99.9% | residual activity (PIM2 (human)): 116% | residual activity (PRKCH (human)): 87.6% | residual activity (PRKCI (human)): 92.6% | residual activity (PRKD1 (human)): 93.2% | residual activity (RIPK2 (human)): 109% | residual activity (ROCK1 (human)): 100% | residual activity (RPS6KA5 KD2 (human)): 111% | residual activity (STK11 (human)): 104% | residual activity (STK33 (human)): 93.7% | residual activity (STK39 (human)): 88.3% | residual activity (TAOK3 (human)): 93% | residual activity (TGFBR1 (human)): 98.8% | residual activity (TSSK1B (human)): 93.4% | residual activity (TSSK2 (human)): 100% | residual activity [2]: 99.1% | residual activity (TYRO3 (human)): 103% | residual activity (VRK1 (human)): 99.8% | residual activity (YES1 (human)): 85%

O=C1NC(=O)c2c1c1c3ccccc3[nH]c1c1[nH]c3cc(Br)ccc3c21
residual activity (AKT3 (human)): 91.1% | residual activity (CAMK1G (human)): 94.5% | residual activity (CAMK2A (human)): 78.3% | residual activity (CAMK2B (human)): 80.3% | residual activity (CAMK2D (human)): 63.1% | residual activity (CDK2 CCNA2 (human)): 52.5% | residual activity (CDK3 CCNE1 (human)): 88.1% | residual activity (CDK4 CCND1 (human)): 84.9% | residual activity (CDK6 CCND3 (human)): 40.2% | residual activity (CHEK1 (human)): 79.7% | residual activity (CLK1 (human)): 97% | residual activity (DAPK2 (human)): 98.4% | residual activity (DAPK3 (human)): 62.9% | residual activity (EPHB4 (human)): 86.5% | residual activity (GRK4 (human)): 99.8% | residual activity (GRK7 (human)): 98.2% | residual activity (HIPK4 (human)): 94.1% | residual activity (IRAK1 (human)): 81.8% | residual activity [1]: 110% | residual activity (JAK3 JH1 JH2 (human)): 77% | residual activity (MAPK1 (human)): 92.4% | residual activity (MYLK2 (human)): 43.3% | residual activity (PBK (human)): 86.3% | residual activity (PIM2 (human)): 44.6% | residual activity (PRKCH (human)): 100% | residual activity (PRKCI (human)): 96.2% | residual activity (PRKD1 (human)): 51.9% | residual activity (RIPK2 (human)): 99.6% | residual activity (ROCK1 (human)): 93.9% | residual activity (RPS6KA5 KD2 (human)): 76.1% | residual activity (STK11 (human)): 90.2% | residual activity (STK33 (human)): 71.9% | residual activity (STK39 (human)): 90.7% | residual activity (TAOK3 (human)): 82.3% | residual activity (TGFBR1 (human)): 96.9% | residual activity (TSSK1B (human)): 86.5% | residual activity (TSSK2 (human)): 96.9% | residual activity [2]: 81.1% | residual activity (TYRO3 (human)): 89.7% | residual activity (VRK1 (human)): 92.3% | residual activity (YES1 (human)): 88.4%
